Bridges are numbered along the chain shown (N, C = ends). Where no end group is shown, it is not given here. [ ]: non-standard residue; d: D form. S5 = C=CCCC[C@](C)(N)C(=O)O; Nle = CCCC[C@H](N)C(=O)O
Experiments:
LNCaP cells = assay: Viability of androgen-dependent LNCaP cells, Cell Titer Glo; assay type: cell-based; conditions: every other day
Experimental: (§1) To test the anti-proliferative effect of SAH-EZH2(42-68)AC, breast (MDA-MB231) and prostate (DU145) cancer cell lines were treated with SAH-EZH2(42-68)AC at the indicated doses for 8 days and measured for viability by Cell Titer Glo®SAH-EZH2(42-68)AC was added to the culture medium once every other day. […] We further tested the anti-proliferative effects of SAH-EZH2(42-68)AC on a Ewing Sarcoma cell line (TC71) and neuroblastoma cell line (Kelly). The cells were treated with SAH-EZH2(42-68)AC at the indicated doses for 6 days on an every other day schedule and then measured for viability using Cell Titer Glo®. […] To test the anti-proliferative effect on chronic myelogenous leukemia, SAH-EZH2(42-68)AC was added to K562 cells at 10 μM every other day and viability was measured at days 2, 4, 6, and 10 using Cell Titer Glo®. […] To assess the anti-proliferative effects of SAH-EZH2(42-68)AC on androgen-dependent and advanced androgen-independent prostate cancer, SAH-EZH2(42-68)AC was added to cell culture every other day at the indicated doses and viability measured using Cell Titer Glo®.

[1] = system: DU145 prostate cancer cells; assay: Viability of DU145 prostate cancer cells; assay type: cell-based; conditions: 8 days, once every other day
From the text: (§2) To compare the functional and mechanism-based cellular activities of SAH-EZH2 and GSK126, a small molecule inhibitor of EZH2 enzymatic activity (McCabe et al. Nature, 492: 108-112, 2012), we conducted viability assays on the EZH2-dependent cell line MLL-AF9 and the EZH2-independent (non-leukemic) cell line 32D. […] We next compared the effects of SAH-EZH2 and GSK126 on lineage specific surface marker expression in MLL-AF9 cells. […] Given the distinct mechanisms of action of SAH-EZH2 and GSK126, we explored whether co-administration of the two compounds would enhance the anti-leukemic effects. […]
(§3) To test the anti-proliferative effect of SAH-EZH2(42-68)AC, breast (MDA-MB231) and prostate (DU145) cancer cell lines were treated with SAH-EZH2(42-68)AC at the indicated doses for 8 days and measured for viability by Cell Titer Glo®SAH-EZH2(42-68)AC was added to the culture medium once every other day. […] The cells were treated with SAH-EZH2(42-68)AC at the indicated doses for 6 days on an every other day schedule and then measured for viability using Cell Titer Glo®. […] To test the anti-proliferative effect on chronic myelogenous leukemia, SAH-EZH2(42-68)AC was added to K562 cells at 10 μM every other day and viability was measured at days 2, 4, 6, and 10 using Cell Titer Glo®. […]

Abl = assay: Viability of androgen independent prostate cancer cells Abl, Cell Titer Glo; assay type: cell-based; conditions: every other day, read-out: IC50 for growth
Experimental: as §1

22Rv1 = assay: Viability of androgen independent prostate cancer cells 22Rv1, Cell Titer Glo; assay type: cell-based; conditions: 22Rv1, every other day; read-out: IC50 for growth
Experimental: as §1

Kelly = assay: Viability of neuroblastoma cell line Kelly, Cell Titer Glo; assay type: cell-based; conditions: 6 days, every other day
Experimental: as §1

EED [2] = biological target: T1, EED (Homo sapiens, UniProt O75530); assay: Competitive fluorescence polarization: displacement of FITC-labeled EZH2(42-68) peptide from EED; assay type: binding; conditions: N-terminal acetylated peptides; EED 200 nM, FITC-peptide 20 nM, 30 min
T1 construct: His (C); made in house; host or cells: Escherichia coli BL21(DE3)
T1 sequence (O75530 whole entry, species assumed): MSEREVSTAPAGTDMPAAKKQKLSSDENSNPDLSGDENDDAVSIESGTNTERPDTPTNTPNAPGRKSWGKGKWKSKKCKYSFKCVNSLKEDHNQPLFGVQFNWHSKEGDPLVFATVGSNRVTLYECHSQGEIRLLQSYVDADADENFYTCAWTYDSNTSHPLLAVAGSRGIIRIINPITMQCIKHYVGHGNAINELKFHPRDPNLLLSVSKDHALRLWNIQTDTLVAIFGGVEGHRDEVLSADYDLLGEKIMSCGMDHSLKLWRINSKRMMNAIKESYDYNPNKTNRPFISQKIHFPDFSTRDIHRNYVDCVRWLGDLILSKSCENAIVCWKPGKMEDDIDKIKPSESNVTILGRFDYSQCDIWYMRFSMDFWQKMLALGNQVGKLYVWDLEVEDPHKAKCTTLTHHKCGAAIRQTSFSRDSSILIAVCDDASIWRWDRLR
Experimental: The EED binding affinities of SAH-EZH2 and SAH-EZH2(42-68)AC were assessed by their capacities to displace FITC-labeled EZH2(42-68) peptide from EED. Serially diluted acetyl-SAH-EZH2 and the doubly stapled acetyl-SAH-EZH2(42-68)AC (dose range from 2.5 nM to 10 μIM) were incubated with purified EED (200 nM) and FITC-labeled EZH2(42-68) peptide (20 nM) for 30 min, followed by measurement of fluorescence polarization. […] The non-binding EZH2(47-64) construct was used as a negative control.

K562 cells = assay: Viability of K562 chronic myelogenous leukemia cells, Cell Titer Glo; assay type: cell-based; conditions: 10 μM every other day; days 2, 4, 6 and 10
Experimental: as §1

[3] = system: MDA-MB231 breast cancer cells; assay: Viability of MDA-MB231 breast cancer cells; assay type: cell-based; conditions: 8 days, once every other day
From the text: as §2, §3

TC71 = assay: Viability of Ewing Sarcoma cell line TC71, Cell Titer Glo; assay type: cell-based; conditions: 6 days, every other day
Experimental: as §1

HA-EED = biological target: T2, HA-EED (Homo sapiens, UniProt O75530); assay: Anti-FITC pull down of HA-EED by FITC-SAH-EZH2 peptides; assay type: binding; conditions: HA-EED 40 nM
T2 construct: made in house; host or cells: Sf21 insect cells
T2 sequence (O75530 whole entry): as the sequence (O75530 whole entry, species assumed) above
Experimental: (§4) [formula] y: Fluorescence polarization, X: Receptor concentration, L: Ligand concentration AF: Minimum value of y, AB: Maximum value of y For anti-FITC pull down-based binding assays, HA-EED was produced in Sf21 cells as described in Shen et al.^29,46. FITC-SAH-EZH2 peptides (final concentration, 50, 10, and 2 nM) were mixed with 2 μl, 0.5 μl and 0.2 μl of anti-FITC antibody (Abcam, 1 mg/ml) respectively, and incubated with 30 μl of protein G agarose (Roche) in 400 μl binding buffer (pH 8.0, 20 mM Tris-HCl, 150 mM NaCl, 0.3% NP40, 10% glycerol). After successive washes, HA-EED (final concentration of 40 nM each tube) was added and incubated for 3 h, followed by detection of HA-EED bound to FITC-SAH-EZH2 peptides by anti-HA (Santa Cruz Biotechnology) western analysis. Detection of FITC-SAH-EZH2 peptides was accomplished by fluorescence scan (GE Healthcare Life Sciences, Typhoon 9200).

EED [4] = biological target: T1, EED; assay: Fluorescence polarization binding of FITC-labeled SAH-EZH2 peptides to EED; conditions: FITC-peptide 25 nM; His-EED 25 nM-8 μM
Experimental: SAH-EZH2/EED Binding Analyses: For fluorescence polarization binding analysis, C-terminal His-tagged EED (His-EED) was expressed in Escherichia coli BL21(DE3) using 0.3 mM IPTG for 6 h at room temperature. Bacterial pellet lysate was loaded onto a Ni-NTA column (Novagen) for purification of His-EED. Fluorescinated stapled peptides (final concentration, 25 nM) were incubated with His-EED (serial dilution range, 25 nM-8 μM) at room temperature until equilibrium was reached (˜15 min) Binding activity was measured by fluorescence polarization on a Perkin-Elmer LS50B luminescence 5 spectrophotometer. KD values were determined by following equation,
as §4

MLL-AF9 leukemia cells = assay: Apoptosis by Annexin V/7-AAD flow cytometry; assay type: cell-based, mouse; conditions: positive control, 2 μM, 48 h
Experimental: Cell Proliferation, Apoptosis, and Cell Cycle Analyses: To monitor the effect of SAH-EZH2 peptides on cell proliferation, MLL-AF9 cells were seeded in 48 well plates at densities of 2×10^5 cells per well in 150 μl of AF9 media and treated with SAH-EZH2 peptides (10 μM) twice daily. Cells were counted every other day using a hematocytometer. To evaluate apoptosis induction, the cells were stained with Annexin V5-PE and 7-AAD after 8 or 16 days of treatment with SAH-EZH2 peptides. Camptothecin (Biovision) was used as a positive control (2 μM, 48 h). Cells were analyzed using a BD FACScaliber and data was processed using Flowjo software. For cell cycle analysis, cells were stained with propidium iodide (BD Biosciences) after 4 or 8 days of treatment with SAH-EZH2 peptides. Cells were analyzed using a BD FACSCalibur and data processed using Modfit software.

CD133 = CD133 expression in MLL-AF9 cells; assay type: cell-based, mouse; conditions: MLL-AF9, 8 days of treatment
32D = assay: Viability assay on EZH2-independent cell line 32D; assay type: cell-based; conditions: EZH2-independent (non-leukemic)
From the text: (§5) To compare the functional and mechanism-based cellular activities of SAH-EZH2 and GSK126, a small molecule inhibitor of EZH2 enzymatic activity (McCabe et al. Nature, 492: 108-112, 2012), we conducted viability assays on the EZH2-dependent cell line MLL-AF9 and the EZH2-independent (non-leukemic) cell line 32D. […] We next compared the effects of SAH-EZH2 and GSK126 on lineage specific surface marker expression in MLL-AF9 cells. […] Given the distinct mechanisms of action of SAH-EZH2 and GSK126, we explored whether co-administration of the two compounds would enhance the anti-leukemic effects. […] Thus, SAH-EZH2 manifests a unique mechanism of action by targeting EED, dissociating the EZH2/EED complex, and thereby reduces EZH2 protein levels. As a result, the H3K27Me3 mark is reduced over time and PRC2 transcriptional effects are inhibited, leading to anti-proliferative and induced-differentiation effects on EZH2-dependent leukemia cells.

Ace1, Adam8 and Fcer1a = assay: Real time qPCR of macrophage/monocyte lineage-specific markers in MLL-AF9 cells; assay type: cell-based, mouse; conditions: MLL-AF9, 8 days
MLL-AF9 = assay: Viability assay on EZH2-dependent cell line MLL-AF9; assay type: cell-based, mouse
From the text: as §5

FSSNRXKILXRTXILNXEWKQRRIQPV (SEQ ID NO:56) (FSSNR[S5]KIL[S5]RT[S5]ILN[S5]EWKQRRIQPV; staple 6-10, 13-17) [SAH-EZH2(42-68)AC]
Anti-proliferative activity on LNCaP (LNCaP cells): anti-proliferative activity in each case
Anti-proliferative effect on DU145 [1]: enhanced dose-dependent anti-proliferative effects compared to SAH-EZH2 treatment
IC50 (Abl): < 1000 nM
IC50 (22Rv1): < 1000 nM
Anti-proliferative effect on Kelly (Kelly): noticeable anti-proliferative effects
Displacement of FITC-labeled EZH2(42-68) peptide from EED (EED [2]): two times more efficiently than SAH-EZH2
Proliferation of K562 cells (K562 cells): decreased proliferation of K562 cells in a dose-responsive manner
Anti-proliferative effect on MDA-MB231 [3]: enhanced dose-dependent anti-proliferative effects compared to SAH-EZH2 treatment
Anti-proliferative effect on TC71 (TC71): noticeable anti-proliferative effects

FSSNRXKILXRTEILNQEWKQRR (SEQ ID NO: 19) (FSSNR[S5]KIL[S5]RTEILNQEWKQRR; staple 6-10) [SAH-EZH2A(42-64)]
Engagement of HA-EED by anti-FITC pull down (HA-EED): no appreciable engagement
EED-binding activity by fluorescence polarization (EED [4]): no appreciable engagement

SBFSSNRXKILXRTEILNQEWKQRRIQPV (SEQ ID NO: 3) (S[Nle]FSSNR[S5]KIL[S5]RTEILNQEWKQRRIQPV; staple 8-12) [SAH-EZH2A(40-68)]
EED-binding activity by fluorescence polarization (EED [4]): most potent dose-responsive EED-binding activities

SAH-EZH2B(40-68): stapled EZH2(40-68) peptide with the B-positioned staple; probably position 'C' (54-58) of FIG. 2, SEQ ID NO: 5 (S[Nle]FSSNRQKILERT[S5]ILN[S5]EWKQRRIQPV; staple 15-19)
EED-binding activity by fluorescence polarization (EED [4]): most potent dose-responsive EED-binding activities

SAH-EZH2B(42-64): foreshortened stapled EZH2(42-64) peptide with the B-positioned staple; probably position 'C' of FIG. 2, SEQ ID NO: 20 (FSSNRQKILERT[S5]ILN[S5]EWKQRR; staple 13-17)
Engagement of HA-EED by anti-FITC pull down (HA-EED): no appreciable engagement
EED-binding activity by fluorescence polarization (EED [4]): no appreciable engagement

CC[C@@]1(O)C(=O)OCc2c1cc1n(c2=O)Cc2cc3ccccc3nc2-1 [camptothecin]
Apoptotic effect (MLL-AF9 leukemia cells): robust apoptotic effect

QKILERTEILNQEWKQRR (SEQ ID NO: 11) [EZH2(47-64), reference compound]
Displacement of FITC-labeled EZH2(42-68) peptide from EED (EED [2]): non-binding

CC[C@H](C)n1cc(C)c2c(C(=O)NCc3c(C)cc(C)[nH]c3=O)cc(-c3ccc(N4CCNCC4)nc3)cc21 [GSK126]
Expression of CD133 (CD133): decreased the expression
Viability of 32D cells (32D): decreased the viability
Expression of macrophage lineage-specific markers (Ace1, Adam8 and Fcer1a): increase expression of Fcerla
Viability of MLL-AF9 cells (MLL-AF9): decreased the viability
